Results reported in patent publication US20040058855A1, “Use of materials having zinc ionophoric behavior” (priority 2002, published 2004).
Like-named read-outs stand apart in the source and are kept apart here.

Experiments:
[1] = tested on: Malassezia furfur (ATCC 14521); experiment: Minimum inhibitory concentration (MIC) against Malassezia furfur in mDixon agar; format: cell-based; conditions: for MIC: Malassezia furfur, lowest tested dilution with no visible growth, 30° for 5 days
Method: Antifungal activity is assessed microbiologically by a method as described below^1.
^1. The Minimum Inhibitory Concentration is indicative of anti-fungal efficacy. Generally, the lower the value of the composition, the better its anti-fungal efficacy, due to increased inherent ability of the anti-dandruff agent to inhibit the growth of microorganisms.
Dilutions of solubilized anti-microbial active were then added to test tubes containing molten mDixon agar. M. furfur inoculum was added to each tube of molten agar, the tube vortexed, and the contents poured into separate sterile petri dishes. […] The lowest tested dilution of anti-microbial active that yields no growth is defined as the Minimal Inhibitory Concentration (MIC).
1) Malassezia furfur was grown in a 250 ml Erlenmeyer flask containing 100 ml “mDIXON” medium at 320 rpm and 30° C. until turbid.
2) Selected dilutions were prepared using an appropriate dilution series, of the anti-microbial active or combination in solvent, which allowed the sample active to be solubilized prior to addition to the final test agar.
3) 0.25 ml dilutions of anti-microbial active were added to test tubes containing 9.5 ml molten “mDIXON” agar (held at 45° C. in a water bath).
4) 0.25 M. furfur inoculum (adjusted to 5×10^5 cfu/ml by direct count) was added to each test tube of molten agar.
5) Each tube was vortexed, and the contents poured into separate petri dishes.
6) After the agar solidified, the plates inverted and incubated at 30° for 5 days.
7) The plates were then observed for visible M. furfur growth.
Anti-fungal activity of materials having zinc ionophoric behavior was screened by measurement of minimum inhibitory concentrations (MIC's) against Malassezia furfur.

[2] = tested on: human umbilical vein endothelial cells; experiment: Rate of zinc transport into model cells (intracellular zinc, Fura-2 fluorescence); format: cell-based; conditions: 1 mM ZPT (0.32 ppm) and an equal weight proportion of zinc salt
Method: Measurement of the free zinc levels in cells as a function of time is a direct measure of delivery of zinc across the cell wall/membrane. There are many methods available for assessing this process, many are based on use of intracellular fluorescent dyes. An exemplary method is similar to that reported by Turan et al. (Turan, […]. Am. J. Physiol. 1997, 272, […]-[…]). In this case, […] used, although the procedure is general and can be used with all eukaryotic cells. […] Cells are plated onto a glass cover slip. These immobilized cells are then exposed to a zinc-responsive fluorescent dye such as Fura-2 (Molecular Probes, Inc.) to load the cells with this cell-permeant fluorophore. The cells are then washed to remove dye that is not intracellular. Upon exposure to test treatments, fluorescence is measured as a function of time; in the case of Fura-2, the ratio of fluorescence intensities at 505 nm is taken in response to excitation at 340 and 380 nm. The fluorescence is conveniently measured by using an epifluorescence inverted microscope interfaced to a spectrofluorometer. Fluorescence intensity is proportional to the detected zinc level. […] TPEN) to assure the measured fluorescent response is due to zinc and not an artifact of calcium transport. In the present invention, the method as described herein may be used to identify materials with zinc ionophoric behavior.

[3] = Zinc availability test with metallochromic dye zincon (colour change orange to blue); format: physicochemical; conditions: ~30 mg/10 ml water, pH 7-11, zincon in ethanol
Source text: Zinc-containing materials (ZCMs) differ with respect to how strongly the zinc ion (Zn^2+) is held by counterions in the crystal lattice. The benefits discussed herein depend upon having available Zn^2+. […] The response is a binary visual assessment of whether or not the color changes indicating zinc-binding.
The method is based on the commercial metallochromic dye zincon. Zincon changes from an orange color to blue upon binding zinc and provides the basis for detecting available Zn^2+: [drawing 20]
The specific procedure involves making a stock solution of zincon in ethanol (˜50 mg/10 ml ethanol). The ZCM is then added to water (˜30 mg/10 ml water) and agitated (pH range should be 7-11). Three to four drops of zincon solution are then added to the ZCM in water, agitated and a visual assessment of color change made.

[4] = ATCC14521, 120 h, read-out: MIC
[5] = to inhibit M. furfur growth, zinc salt alone (MIC) or together with the stated amount of ZPT

Compound | available Zn^2+ (zincon colour change, binary visual assessment) [3] | also measured
Oc1c(Br)cc(Br)c2cccnc12 [5,7-D-Br-8-HQ, 5-7-Bibromo-8-hydroxyquinoline] | – | MIC [1, 4]: 25 µg/mL
CNc1ccc2oc(C[C@H]3O[C@@]4(CC[C@H]3C)O[C@H]([C@H](C)C(=O)c3ccc[nH]3)[C@H](C)C[C@H]4C)nc2c1C(=O)O [A23187, Calcimycin] | – | MIC [1, 4]: > 13 µg/mL
Oc1c(I)cc(I)c2cccnc12 [Diodoquin, 5,7-Diiodo-8-hydroxyquinoline] | – | MIC [1, 4]: 25 µg/mL
Oc1c(I)cc(Cl)c2cccnc12 [Enterovioform, 5-Cl, 7-I-8-hydroxyquinoline] | – | MIC [1, 4]: 25 µg/mL
Cc1ccc2c(Cl)cc(Cl)c(O)c2n1 [Sterosan, 2-Me, 5,7-Dichloro-8-hydroxyquinoline] | – | MIC [1, 4]: 100 µg/mL
CCCCN(CCCC)C(=S)SSC(=S)N(CCCC)CCCC [TBTDS, Tetra-n-butyl thiuram Disulfide] | – | MIC [1, 4]: > 1000 µg/mL
[O-]n1ccccc1=S.[O-]n1ccccc1=S.[Zn+2] [ZPT, zinc salt of 1-hydroxy-2-pyridinethione] | – | Rate of Zinc Transport [2]: 4 min⁻¹; Antifungal activity of ZPT: Amount of zinc salt required [1, 5]: 0 ppm; Antifungal activity of ZPT: Amount of ZPT Required (%) ([1]; to inhibit M. furfur growth, 100% ZPT is equivalent to 8 ppm (MIC of ZPT alone)): 100%
[O]=[Zn] [ZnO, zinc oxide] | have available zinc | Rate of Zinc Transport [2]: ˜0 min^−1; Antifungal activity of ZPT: Amount of zinc salt required [1, 5]: 500 ppm
O=S(=O)([O-])[O-].[Zn+2] [ZnSO4, zinc sulfate] | have available zinc | Rate of Zinc Transport [2]: ˜0 min^−1; Antifungal activity of ZPT: Amount of zinc salt required [1]: 5000 ppm
O=C([O-])CN(CCN(CC(=O)[O-])CC(=O)[O-])CC(=O)[O-].[Na+].[Na+].[Zn+2] [zinc EDTA] | not having available Zn^2+ | –
CC(=O)[O-].CC(=O)[O-].[Zn+2] [zinc acetate] | have available zinc | –
N=C(N)NCCC[C@H](N)C(=O)O.[Zn] [zinc arginine] | have available zinc | –
[Cl-].[Cl-].[Zn+2] [zinc chloride] | have available zinc | –
O=C([O-])CC(O)(CC(=O)[O-])C(=O)[O-].O=C([O-])CC(O)(CC(=O)[O-])C(=O)[O-].[Zn+2].[Zn+2].[Zn+2] [zinc citrate] | have available zinc | –
[OH-].[OH-].[Zn+2] [zinc hydroxide] | have available zinc | –
CC(O)C(=O)[O-].CC(O)C(=O)[O-].[Zn+2] (centres unmarked) [zinc lactate] | have available zinc | –
OCC(O)CO.[Zn] [zinc monoglycerolate] | have available zinc | –
O=C([O-])C(=O)[O-].[Zn+2] [zinc oxalate] | have available zinc | –
Lasalocid | – | MIC [1]: >1000 ppm
zinc hexaborate | have available zinc | –
zinc histadine | have available zinc | –
zinc phytate | not having available Zn^2+ | –
zinc stearate | have available zinc | –
